Each block holds one compound with its values, some of them ahead of it.
What was measured:
[1] = system: B16/F0 murine melanoma; assay: In-vivo tumor uptake and biodistribution; design: species or system C57B16 mice
Protocol: In-Vivo Tumor Uptake. To study the tumor uptake of ^99mTc-complexes, Tc-(Compound A-D and J-K), in vivo, biodistribution experiments at 1 h and 6 h after their administration were carried out in C57B16 mice with palpable B16 melanoma nodules. The biodistribution data including melanoma/nontumor (M/NT) ratios for selected organs are summarized in Table 4 and 5 as percentage injected dose per gram ([…]).
Animal Studies. All animal experiments were performed in compliance with the Principles of Laboratory Animal Care (NIH publication #85-23, revised 1985). Biodistribution studies and tumor-uptake measurements were performed in C57B16 mice (15 to 20 g) bearing the B16/F0 murine melanoma on the hind limb. See for example the studies described in, which are hereby incorporated by reference, Brandau, W.; Niehoff, T.; Pulawski, P.; Jonas, M.; Dutschka, K.; Sciuk, J.; Coenen, H. H.; Schober, O. Structure Distribution Relationship of Iodine-123-Iodobenzamides as Tracers for the Detection of Melanotic Melanoma. J. Nucl. Med. 1996, 37, 1865-1871; Mohanmmed, A.; Nicholl, C.; Titsch, U.; Eisenhut, M. Radiojodinated N-(Alkylaminoalkyl)-Substituted 4-Methoxy-, 4-Hydroxy-, and 4-Aminobenzamides: Biological Investigations for the Improvement of Melanoma-Imaging Agents. Nucl. Med. Biol. 1997, 24, 373-380; Titsch, U.; Mohammed, A.; Wagner, S.; Oberdorfer, F.; Eisenhut, M. Syntheses of N-(2-Diethylaminoethyl)benzamides Suitable for ^99mTc Complexation. J. Labelled Compd. Radiopharm. 1997, 40, 416-418; Dittmann, H.; Coenen, H. H.; Zölzer, F.; Dutschka, K.; Brandau, W.; Streffer, C. In Vitro Studies on the Cellular Uptake of Melanoma Imaging Aminoalkyl-iodobenzamide Derivatives (ABA). Nucl. Med. Biol. 1999, 26, 51-56; and Michelot, J. M.; Moreau, M. F. C.; Veyre, A. J.; Bonafous, J. F.; Bacin, F. J.; Madelmont, J. C.; Bussiere, F.; Souteyrand, P. A.; Mauclaire, L. P.; Chossat, F. M.; Papon, J. M.; Labarre, P. G.; Kauffmann, Ph.; Plagne, R. J. Phase II Scintigraphic Clinical Trial of Malignant Melanoma and Metastases with Iodine-123-N-(2-Diethylaminoethyl 4-Iodobenzamide). J. Nucl. Med. 1993, 34, 1260-1266. The tumor cells (B16/F0), obtained from ATCC, were washed with PBS and transplanted subcutaneously on the left hind flank by an inoculation of 0.5×10^6 cells (0.1 mL). Ten to 14 days later the animals developed palpable tumor nodules 3 to 5 mm in diameter. The biodistribution studies were carried out by tail-vein injection of 25 to 30 μCi (0.05 to 0.1 mL) of the ^99mTc-labeled complexes Tc-(Compound A-D, H, J, K or M). At the designated time after tail-vein administration, the animals were weighed and sacrificed. The organs and tumors were harvested and, when appropriate, blotted dry, weighed, and counted in a gamma counter along with technetium-99m standards of the injected dose. The results are expressed as % ID/g tissue (Table 4 and 5)

[2] = system: B16/F0 murine melanoma cells; assay: In-vitro tumor-cell uptake, melanoma cells; type: cell-based; settings: for % active: active part of in-vitro uptake, 37° C. vs 4° C.
Protocol: In-Vitro Tumor-Uptake Studies. Tumor-cell uptake studies in B16/F0 murine melanoma cells were performed with complexes Tc-(Compound A-D and H-M) at 37° C. and 4° C. Additionally, tumor-cell uptake of complex Tc-(Compound A) was investigated in another rapidly dividing MCF-7 human breast cancer cell line.
In-Vitro Cell Studies. Murine B16/F0 melanoma cells and human MCF-7 breast cancer cells were obtained from American Type Culture Collection, Manassas Va., (ATCC) and were grown in T-175 flasks in 14 mL Dulbecco's Modified Eagle Medium (D-MEM; Gibco, Life Technology, Gaithersburg, Md.) containing 4500 mg/L D-glucose, L-glutamine, and pyridoxine hydrochloride, 110 mg/L sodium pyruvate, 10% fetal bovine serum (FBS), 0.2% gentamicin and 0.5% penicillin-streptomycin solution. All cells were harvested from cell culture flasks by trypsinization with 1 mL trypsin-EDTA solution (0.25% trypsin, 1 mM EDTA×4 Na) (Gibco). After being washed with 12 mL Dulbecco's Phosphate-Buffered Saline (PBS) (Gibco), pH 7.2 (Ca^2+- and Mg^2+-free; g/L KCl, 0.20; KH2PO4, 0.20; NaCl, 8.00; Na2HPO4, 1.15), the cells were counted and resuspended in 8 mL S-MEM (Gibco) (Ca^2+ free, with reduced Mg^2+ content) and stored at 4° C. until use.
For in-vitro tumor-cell accumulation studies, 5×10^6 cells in polypropylene test tubes were incubated at 37° C. or 4° C., with intermittent agitation with 1-2 μCi (5 μL) ^99mTc-complex Tc-(Compound A-D) in a total volume of 350 μL S-MEM. At appropriate time intervals the tubes were vortexed and 8-μL samples were layered on 350 μL cold FBS in a 400-μL Eppendorf microcentrifuge tube. After centrifugation at 15,000 rpm for 2 min, the tubes were frozen in a dry ice-acetone bath. While still frozen, the bottom tip of the microcentrifuge tube containing the cell pellet was cut and placed in a counting tube. The remaining portion of the tube with the supernatant was placed in a separate counting tube. Both fractions were counted for radioactivity in a γ-counter (WALLAC, 1480 WIZARD 3″™). The amount of supernatant in the cell pellet was determined to be <1% in separate experiments. The percentage cell uptake of the ^99mTc-complex was calculated as: % uptake=[cpm(pellet)]/[cpm(pellet)+cpm(supernatant)]×100

Structure (SMILES): CCN(CC)CCN(CCSC(c1ccccc1)(c1ccccc1)c1ccccc1)CC(=O)NCCSC(c1ccccc1)(c1ccccc1)c1ccccc1 [Compound A, N-[(2-diethylaminoethyl)-N-(2-(2-(S-(triphenyl-methyl)thio)ethyl)amino)acetyl]-S-(triphenylmethyl)-2-aminoethane-thiol]
In-vivo M/Blood ([1]; mouse, in vivo): 7.6 | In-vivo M/Lung ([1]; mouse, in vivo): 5.4 | In-vivo M/Spleen ([1]; mouse, in vivo): 4.2 | % Tumor uptake (In-vitro, 60 min) 4° C. [2]: 33 ± 2.4% | % Tumor uptake (In-vitro, 60 min) 37° C. [2]: 44 ± 1.6% | % active [2]: 25%

Structure (SMILES): O=C1CN(CCN2CCCCC2)CC[S][99Tc]2(=[O])[S]CC[N]12 (stereo not shown) [^99mTc-Compound J]
biodistribution blood ([1]; 1 h post-injection): 2.26 % ID/g | biodistribution brain ([1]; 1 h post-injection): 0.52 % ID/g | biodistribution heart ([1]; 1 h post-injection): 0.91 % ID/g | biodistribution kidney ([1]; 1 h post-injection): 4.26 % ID/g | biodistribution liver ([1]; 1 h post-injection): 14.9 % ID/g | biodistribution lung ([1]; 1 h post-injection): 2.50 % ID/g | biodistribution melanoma ([1]; 1 h post-injection): 5.26 % ID/g | biodistribution muscle ([1]; 1 h post-injection): 0.42 % ID/g | biodistribution spleen ([1]; 1 h post-injection): 3.28 % ID/g | mel/blood ratio ([1]; 1 h post-injection): 2.3 | mel/liver ratio ([1]; 1 h post-injection): <1 | mel/lung ratio ([1]; 1 h post-injection): 2.1 | mel/spleen ratio ([1]; 1 h post-injection): 1.6 | biodistribution blood ([1]; 6 h post-injection): 0.20 % ID/g | biodistribution brain ([1]; 6 h post-injection): 0.05 % ID/g | biodistribution heart ([1]; 6 h post-injection): 0.26 % ID/g | biodistribution kidney ([1]; 6 h post-injection): 2.31 % ID/g | biodistribution liver ([1]; 6 h post-injection): 4.62 % ID/g | biodistribution lung ([1]; 6 h post-injection): 0.31 % ID/g | biodistribution melanoma ([1]; 6 h post-injection): 3.33 % ID/g | biodistribution muscle ([1]; 6 h post-injection): 0.15 % ID/g | biodistribution spleen ([1]; 6 h post-injection): 0.20 % ID/g | mel/blood ratio ([1]; 6 h post-injection): 16.7 | mel/liver ratio ([1]; 6 h post-injection): <1 | mel/lung ratio ([1]; 6 h post-injection): 10.7 | mel/spleen ratio ([1]; 6 h post-injection): 16.7

Structure (SMILES): CCN(CC)CCNC(=O)c1ccc(I)cc1 [IBZA, reference compound]
In-vivo Tumor uptake, Melanoma ([1]; 60 min): 5.5 % I.D./g | In-vivo M/Blood ([1]; melanoma/blood ratio, 60 min): 8 | In-vivo M/Lung ([1]; melanoma/lung ratio, 60 min): <1 | In-vivo M/Spleen ([1]; melanoma/spleen ratio, 60 min): 1 | % Tumor uptake (In-vitro, 60 min) 4° C. [2]: 28 ± 1.4% | % Tumor uptake (In-vitro, 60 min) 37° C. [2]: 26 ± 1.4%

Further lines, with some results ahead:

In-vivo M/Blood ([1]; mouse, in vivo): 7.6 | In-vivo M/Lung ([1]; mouse, in vivo): 2.1 | In-vivo M/Spleen ([1]; mouse, in vivo): 4.0
Structure (SMILES): CCCCN(CCCC)CCN(CCSC(c1ccccc1)(c1ccccc1)c1ccccc1)CC(=O)NCCSC(c1ccccc1)(c1ccccc1)c1ccccc1 [Compound B, N-[(2-dibutylaminoethyl)-N-(2-(2-(S-(triphenylmethyl)thio)ethyl)amino)-acetyl]-S-(triphenylmethyl)-2-aminoethanethiol]
% Tumor uptake (In-vitro, 60 min) 4° C. [2]: 16 ± 1.3% | % Tumor uptake (In-vitro, 60 min) 37° C. [2]: 8 ± 1.9%

In-vivo M/Blood ([1]; mouse, in vivo): 7.7 | In-vivo M/Lung ([1]; mouse, in vivo): 2.4 | In-vivo M/Spleen ([1]; mouse, in vivo): 3.0
Structure (SMILES): CCN(CC)CCCN(CCSC(c1ccccc1)(c1ccccc1)c1ccccc1)CC(=O)NCCSC(c1ccccc1)(c1ccccc1)c1ccccc1 [Compound C, N-[(3-diethylaminopropyl)-N-(2-(2-(S-(triphenylmethyl)thio)ethyl)amino)-acetyl]-S-(triphenylmethyl)-2-aminoethanethiol]
% Tumor uptake (In-vitro, 60 min) 4° C. [2]: 17 ± 1.5% | % Tumor uptake (In-vitro, 60 min) 37° C. [2]: 62 ± 0.8% | % active [2]: 73%

In-vivo M/Blood ([1]; mouse, in vivo): 4.3 | In-vivo M/Lung ([1]; mouse, in vivo): 1.5 | In-vivo M/Spleen ([1]; mouse, in vivo): 1.4
Structure (SMILES): CCCCN(CCCC)CCCN(CCSC(c1ccccc1)(c1ccccc1)c1ccccc1)CC(=O)NCCSC(c1ccccc1)(c1ccccc1)c1ccccc1 [Compound D, N-[(3-dibutylaminopropyl)-N-(2-(2-(S-(triphenylmethyl)thio)ethyl)amino)-acetyl]-S-(triphenylmethyl)-2-aminoethanethiol]
% Tumor uptake (In-vitro, 60 min) 4° C. [2]: 56 ± 2.7% | % Tumor uptake (In-vitro, 60 min) 37° C. [2]: 68 ± 2.3% | % active [2]: 18%
